{"source": "patent US20220354818A1", "about": "“METHODS FOR TREATING BRAIN INJURY OR COGNITIVE DYSFUNCTION BY PHARMACOLOGICAL ENHANCMENT OF M-TYPE POTASSIUM ION CURRENTS IN NEURONS” (Advanced Neuroresearch Therapeutics LLC, priority 2019, published 2022)", "key": {"c-Fos": {"tested_on": "c-Fos", "assay": "c-Fos expression (FosTRAP mice) in hippocampal CA1 after blunt TBI", "type": "in vivo, mouse", "settings": "tamoxifen 30 days after single blunt TBI; acute RTG treatment", "from_the_text": "Transgenic “FosTRAP” mice were used to study neuronal activity in sub-cortical regions following blunt TBI (the CCCI model as described above). These mice express the fluorescent protein, tdTomato, under the control of the neuronal promoter c-Fos, an “early intermediate gene” transcriptional factor that correlates well with heavy neuronal activity. Accordingly, whenever neurons express c-Fos, tdTomato is also expressed, allowing for an optical reporter of prior neuronal activity.\nBecause these transgenic mice express tdTopmato via the tamoxifen-inducible Cre/IoxP system, mice were injected (i.p.) with tamoxifen (75 mg/kg) 30 days after a single blunt TBI (i.e., CCCI), and samples were collected 5 days after injection.\nSlices (200 μm) of each collected sample were infused with 4% (w/v) PFA for 10 minutes at RT, washed 5× in PBS and blocked with 8% (v/v) donkey serum (Sigma-Aldrich) diluted in PBS, 0.1% (v/v) Triton X-100 (Sigma-Aldrich), and 0.1% (v/v) Tween 20 (Thermo Fisher Scientific). […] A Nikon Eclipse FN1 microscope with 10× and 40× Plan Fluor objectives was used for detection of fluorescence. […] Cell count was obtained by non-biased automatic quantification with ImageJ. […] ROIs were determined automatically using the “analyze particles” function of ImageJ, with size set to 200-8000 and circularity set to 0.00-1.00."}, "[1]": {"tested_on": "mice subjected to one blunt TBI (CCCI)", "assay": "Dosage optimization: spontaneous myoclonic seizures after one blunt TBI (CCCI)", "type": "in vivo, mouse", "settings": "RTG 0.3, 1 and 3 mg/kg i.p. once 30 minutes post-TBI; second to fourth day", "experimental": "An additional KCNQ2/3-specific compound, RL648_81 was also administered in the same manner (0.03 mg/kg, 0.1 mg/kg, and 0.3 mg/kg). […] To monitor the occurrence of spontaneous myoclonic seizures after, the mice were video/EEG monitored from the second to the fourth day after the TBI (72 hours total)."}}, "data": [{"smiles": "CCOC(=O)Nc1ccc(NCc2ccc(F)cc2)cc1N", "note": "[RTG, 2-amino-4-(4-fluorobenzylamino)-1-ethoxycarbonylaminobenzene]", "values": [{"measurement": "c-Fos expression, hippocampal CA1", "setting": "c-Fos", "value": "significantly less c-Fos than the TBI cohort"}, {"measurement": "occurrence of myoclonic seizures post-TBI", "setting": "[1]", "value": "significantly reduced the occurrence of myoclonic seizures"}]}]}
